Reference: patent US20260297085A1, “1 H-PYRROLO[2,3-B]PYRIDIN-4-YL]-2-OXOPYRROLIDINE-3-CARBONITRILE DERIVATIVES AS TYROSINE KINASE 2 (TYK2) INHIBITORS FOR THE TREATMENT OF INFLAMMATORY DISEASES” (BIOGEN MA INC., priority 2023, published 2026)
Counter-ions that a name gives are not always drawn.

How the values were obtained:
[1] = target: T1, human JAK2 kinase domain (JH1) (Homo sapiens, UniProt O60674); experiment: JH1 biochemical assay for JAK2 (ADP-Glo kinase assay, recombinant JH1 catalytic domain, JAK3-974 peptide, 15 μM ATP)
T1 construct: recombinantly generated catalytic kinase (also known as JH1) domain of human JAK1, JAK2, JAK3 and TYK2
T1 sequence (O60674 849-1124 limits assumed): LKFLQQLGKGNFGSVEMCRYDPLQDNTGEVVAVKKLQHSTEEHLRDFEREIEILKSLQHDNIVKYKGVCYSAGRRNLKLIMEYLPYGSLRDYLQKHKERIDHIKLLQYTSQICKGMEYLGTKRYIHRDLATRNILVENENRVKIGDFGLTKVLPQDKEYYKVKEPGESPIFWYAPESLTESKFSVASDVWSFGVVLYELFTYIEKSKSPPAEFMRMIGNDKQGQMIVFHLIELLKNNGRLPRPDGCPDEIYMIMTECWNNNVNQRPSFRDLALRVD
Procedure, shortened: (§1)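 Enzyme levels: JAK1 4 nM, JAK2 0.2 nM, JAK3 0.3 nM, TYK2 2 nM. Peptide substrate at 50 μM. Reactions ran 100 minutes; ADP formed was converted to luciferase luminescence after ATP depletion. Compounds tested from 10 μM or 1 μM top, 11-point 3-fold dilutions; IC50 from 4-parameter logistic fit of normalized percent activity.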

[2] = target: T2, human JAK1 kinase domain (JH1) (Homo sapiens, UniProt P23458); experiment: JH1 biochemical assay for JAK1 (ADP-Glo kinase assay, recombinant JH1 catalytic domain, JAK3-342 peptide, 35 μM ATP)
T2 construct: recombinantly generated catalytic kinase (also known as JH1) domain of human JAK1, JAK2, JAK3 and TYK2
T2 sequence (P23458 875-1153 limits assumed): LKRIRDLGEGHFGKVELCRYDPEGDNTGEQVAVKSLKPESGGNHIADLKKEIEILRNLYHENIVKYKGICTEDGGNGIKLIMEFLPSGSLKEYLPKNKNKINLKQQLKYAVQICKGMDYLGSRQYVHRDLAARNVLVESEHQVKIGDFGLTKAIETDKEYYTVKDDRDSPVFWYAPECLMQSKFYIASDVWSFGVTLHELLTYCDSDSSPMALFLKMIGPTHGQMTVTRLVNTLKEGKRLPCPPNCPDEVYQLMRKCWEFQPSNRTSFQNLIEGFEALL
Procedure, shortened: as §1

[3] = target: T3, human JAK3 kinase domain (JH1) (Homo sapiens, UniProt P52333); experiment: JH1 biochemical assay for JAK3 (ADP-Glo kinase assay, recombinant JH1 catalytic domain, JAK3-974 peptide, 4 μM ATP)
T3 construct: recombinantly generated catalytic kinase (also known as JH1) domain of human JAK1, JAK2, JAK3 and TYK2
T3 sequence (P52333 822-1111 limits assumed): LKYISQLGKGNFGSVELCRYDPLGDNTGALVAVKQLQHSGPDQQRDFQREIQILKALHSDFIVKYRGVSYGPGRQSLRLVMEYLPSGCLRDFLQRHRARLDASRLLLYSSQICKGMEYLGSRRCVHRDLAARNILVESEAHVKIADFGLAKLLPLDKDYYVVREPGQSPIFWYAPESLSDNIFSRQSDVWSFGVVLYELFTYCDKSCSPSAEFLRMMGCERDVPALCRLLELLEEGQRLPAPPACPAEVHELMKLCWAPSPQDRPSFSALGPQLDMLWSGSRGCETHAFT
Procedure, shortened: as §1

[4] = target: T4, human TYK2 kinase domain (JH1) (Homo sapiens, UniProt P29597); experiment: JH1 biochemical assay for TYK2 (ADP-Glo kinase assay, recombinant JH1 catalytic domain, JAK3-974 peptide, 10 μM ATP)
T4 construct: recombinantly generated catalytic kinase (also known as JH1) domain of human JAK1, JAK2, JAK3 and TYK2
T4 sequence (P29597 897-1176 limits assumed): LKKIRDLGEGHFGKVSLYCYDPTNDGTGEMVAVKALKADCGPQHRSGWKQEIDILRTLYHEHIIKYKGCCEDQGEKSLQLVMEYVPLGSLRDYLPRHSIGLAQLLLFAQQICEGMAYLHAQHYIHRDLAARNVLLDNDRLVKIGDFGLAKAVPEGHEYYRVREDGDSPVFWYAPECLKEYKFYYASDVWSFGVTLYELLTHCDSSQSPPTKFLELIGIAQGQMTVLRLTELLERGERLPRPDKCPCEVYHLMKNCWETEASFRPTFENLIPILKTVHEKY
Procedure, shortened: as §1

Structure (SMILES)	IC50 ([1]; JH1 kinase domain, ADP-Glo)	IC50 ([2]; JH1 kinase domain, ADP-Glo)	IC50 ([3]; JH1 kinase domain, ADP-Glo)	IC50 ([4]; JH1 kinase domain, ADP-Glo)	IC50 ([1]; JAK2 JH1, ADP-Glo)	IC50 ([2]; JAK1 JH1, ADP-Glo)	IC50 ([3]; JAK3 JH1, ADP-Glo)	IC50 ([4]; TYK2 JH1, ADP-Glo)
C[C@H]1CN(c2ccnn3cc(-c4cnn(C)c4)cc23)C(=O)[C@@]1(C#N)C1CC1 [Example 29, (3S,4R)-3-cyclopropyl-4-methyl-1-(6-(1-methyl-1H-pyrazol-4-yl)pyrrolo[1,2-b]pyridazin-4-yl)-2-oxopyrrolidine-3-carbonitrile]	> 10000 nM	> 10000 nM	> 10000 nM	> 100 nM	–	–	–	–
Cn1cc(-c2cc3c(N4CC[C@@](C#N)(C5CCC5)C4=O)ccnn3c2)cn1 (single isomer, unassigned) [Example 46]	1000 to 5000 nM	5000 to 10000 nM	100 to 1000 nM	> 100 nM	–	–	–	–
C[C@@H]1CN(c2ccnn3cc(-c4ncccc4F)cc23)C(=O)[C@]1(C#N)C1CC1 [Example 138, (3R,4S)-3-cyclopropyl-1-(6-(3-fluoropyridin-2-yl)pyrrolo[1,2-b]pyridazin-4-yl)-4-methyl-2-oxopyrrolidine-3-carbonitrile trifluoroacetate]	> 10000 nM	100 to 1000 nM	1000 to 5000 nM	20 to 50 nM	–	–	–	–
Cn1cc(-c2cc3c(N4C[C@H](C(F)F)[C@@](C#N)(C5CC5)C4=O)ccnn3c2)cn1 (racemic) [Example 152, rac-(3R,4R)-3-cyclopropyl-4-(difluoromethyl)-1-(6-(1-methyl-1H-pyrazol-4-yl)pyrrolo[1,2-b]pyridazin-4-yl)-2-oxopyrrolidine-3-carbonitrile]	1000 to 5000 nM	1000 to 5000 nM	1000 to 5000 nM	> 100 nM	–	–	–	–
COc1cc(-c2cn3nccc3c(N3C[C@@H](C)[C@@](C#N)(C4CC4)C3=O)n2)c(F)cn1 [Example 196, (3R,4S)-3-cyclopropyl-1-(6-(5-fluoro-2-methoxypyridin-4-yl)pyrazolo[1,5-a]pyrazin-4-yl)-4-methyl-2-oxopyrrolidine-3-carbonitrile]	1000 to 5000 nM	100 to 1000 nM	100 to 1000 nM	20 to 50 nM	–	–	–	–
COc1cncc(-c2cc3c(N4C[C@@H](C)[C@@](C#N)(C5CC5)C4=O)ccnn3c2)n1 [Example 126, (3R,4S)-3-cyclopropyl-1-(6-(6-methoxypyrazin-2-yl)pyrrolo[1,2-b]pyridazin-4-yl)-4-methyl-2-oxopyrrolidine-3-carbonitrile trifluoroacetate]	100 to 1000 nM	100 to 1000 nM	100 to 1000 nM	20 to 50 nM	–	–	–	–
C[C@@H]1CN(c2nc(-c3cccnc3F)cn3nccc23)C(=O)[C@]1(C#N)C1CC1 [Example 226, (3R,4S)-3-cyclopropyl-1-(6-(2-fluoropyridin-3-yl)pyrazolo[1,5-a]pyrazin-4-yl)-4-methyl-2-oxopyrrolidine-3-carbonitrile trifluoroacetate]	–	–	–	–	> 10000 nM	5000 to 10000 nM	> 10000 nM	> 100 nM
C[C@@H]1CN(c2ccnn3cc(-c4cc(C(F)(F)F)ncn4)cc23)C(=O)[C@]1(C#N)C1CC1 [Example 121, (3R,4S)-3-cyclopropyl-4-methyl-2-oxo-1-(6-(6-(trifluoromethyl)pyrimidin-4-yl)pyrrolo[1,2-b]pyridazin-4-yl)pyrrolidine-3-carbonitrile trifluoroacetate]	5000 to 10000 nM	1000 to 5000 nM	1000 to 5000 nM	> 100 nM	–	–	–	–
C[C@@H]1CN(c2ccnn3c(F)c(-c4cnn(C)c4)nc23)C(=O)[C@]1(C#N)C1CC1 [Example 183, (3R,4S)-3-cyclopropyl-1-(3-fluoro-2-(1-methyl-1H-pyrazol-4-yl)imidazo[1,2-b]pyridazin-8-yl)-4-methyl-2-oxopyrrolidine-3-carbonitrile]	> 10000 nM	> 10000 nM	> 10000 nM	> 100 nM	–	–	–	–
C[C@@H]1CN(c2ccnn3cc(-c4nccc(C(F)(F)F)n4)cc23)C(=O)[C@]1(C#N)C1CC1 [Example 120, (3R,4S)-3-cyclopropyl-4-methyl-2-oxo-1-(6-(4-(trifluoromethyl)pyrimidin-2-yl)pyrrolo[1,2-b]pyridazin-4-yl)pyrrolidine-3-carbonitrile trifluoroacetate]	> 10000 nM	5000 to 10000 nM	1000 to 5000 nM	> 100 nM	–	–	–	–
C[C@@H]1CN(c2cc(-c3cnn(C)c3)cc3ncnn23)C(=O)[C@]1(C#N)C1CC1 [Example 285, (3R,4S)-3-cyclopropyl-4-methyl-1-(7-(1-methyl-1H-pyrazol-4-yl)-[1,2,4]triazolo[1,5-a]pyridin-5-yl)-2-oxopyrrolidine-3-carbonitrile]	–	–	–	–	> 10000 nM	> 10000 nM	> 10000 nM	> 100 nM
C[C@@H]1CN(c2ccnn3cc(-c4cnn(C)c4)cc23)C(=O)[C@]1(C#N)C1COC1 [Example 20, (3S,4S)-4-methyl-1-(6-(1-methyl-1H-pyrazol-4-yl)pyrrolo[1,2-b]pyridazin-4-yl)-3-(oxetan-3-yl)-2-oxopyrrolidine-3-carbonitrile]	5000 to 10000 nM	> 10000 nM	> 10000 nM	> 100 nM	–	–	–	–
C[C@@H]1CN(c2nc(-c3cccnc3)cn3ncc(F)c23)C(=O)[C@]1(C#N)C1CC1 [Example 222, (3R,4S)-3-cyclopropyl-1-(3-fluoro-6-(pyridin-3-yl)pyrazolo[1,5-a]pyrazin-4-yl)-4-methyl-2-oxopyrrolidine-3-carbonitrile]	–	–	–	–	1000 to 5000 nM	1000 to 5000 nM	100 to 1000 nM	50 to 100 nM
C[C@@H]1CN(c2n[nH]c3ncc(-c4cnn(C)c4)cc23)C(=O)[C@]1(C#N)C1CC1 [Example 274, (3R,4S)-3-cyclopropyl-4-methyl-1-(5-(1-methyl-1H-pyrazol-4-yl)-1H-pyrazolo[3,4-b]pyridin-3-yl)-2-oxopyrrolidine-3-carbonitrile]	–	–	–	–	100 to 1000 nM	> 10000 nM	> 10000 nM	> 100 nM
Cc1cc(-c2cc3c(N4C[C@@H](C)[C@@](C#N)(C5CC5)C4=O)ccnn3c2)ncc1F [Example 142, (3R,4S)-3-cyclopropyl-1-(6-(5-fluoro-4-methylpyridin-2-yl)pyrrolo[1,2-b]pyridazin-4-yl)-4-methyl-2-oxopyrrolidine-3-carbonitrile trifluoroacetate]	1000 to 5000 nM	1000 to 5000 nM	1000 to 5000 nM	20 to 50 nM	–	–	–	–
C[C@@H]1CN(c2ccnn3cc(-c4cncnc4)cc23)C(=O)[C@]1(C#N)C1CC1 [Example 92, (3R,4S)-3-cyclopropyl-4-methyl-2-oxo-1-(6-(pyrimidin-5-yl)pyrrolo[1,2-b]pyridazin-4-yl)pyrrolidine-3-carbonitrile]	5000 to 10000 nM	1000 to 5000 nM	1000 to 5000 nM	50 to 100 nM	–	–	–	–
CC[C@H]1C[C@](C#N)(C2CC2)C(=O)N1c1ccnn2cc(-c3cnn(C)c3)cc12 [Example 32, (3R,5S)-3-cyclopropyl-5-ethyl-1-(6-(1-methyl-1H-pyrazol-4-yl)pyrrolo[1,2-b]pyridazin-4-yl)-2-oxopyrrolidine-3-carbonitrile]	> 10000 nM	> 10000 nM	> 10000 nM	> 100 nM	–	–	–	–
C[C@@H]1CN(c2ccnn3cc(-c4cnc5n4CCCC5)cc23)C(=O)[C@]1(C#N)C1CC1 [Example 100, (3R,4S)-3-cyclopropyl-4-methyl-2-oxo-1-(6-(5,6,7,8-tetrahydroimidazo[1,2-a]pyridin-3-yl)pyrrolo[1,2-b]pyridazin-4-yl)pyrrolidine-3-carbonitrile trifluoroacetate]	1000 to 5000 nM	1000 to 5000 nM	1000 to 5000 nM	50 to 100 nM	–	–	–	–
C[C@@H]1CN(c2ccc3ncc(-c4cnn(C)c4)cn23)C(=O)[C@]1(C#N)C1CC1 [Example 283, (3R,4S)-3-cyclopropyl-4-methyl-1-(3-(1-methyl-1H-pyrazol-4-yl)pyrrolo[1,2-a]pyrimidin-6-yl)-2-oxopyrrolidine-3-carbonitrile]	–	–	–	–	> 10000 nM	> 10000 nM	> 10000 nM	> 100 nM
C[C@@H]1CN(c2ccnn3cc(-c4ncccn4)cc23)C(=O)[C@]1(C#N)C1CC1 [Example 139, ((3R,4S)-3-cyclopropyl-4-methyl-2-oxo-1-(6-(pyrimidin-2-yl)pyrrolo[1,2-b]pyridazin-4-yl)pyrrolidine-3-carbonitrile trifluoroacetate]	> 10000 nM	1000 to 5000 nM	1000 to 5000 nM	> 100 nM	–	–	–	–
CC[C@@H]1CN(c2ccnn3cc(-c4cnn(C)c4)cc23)C(=O)[C@@]1(C#N)C1CC1 [Example 26, (3S,4S)-3-cyclopropyl-4-ethyl-1-(6-(1-methyl-1H-pyrazol-4-yl)pyrrolo[1,2-b]pyridazin-4-yl)-2-oxopyrrolidine-3-carbonitrile]	> 10000 nM	> 10000 nM	> 10000 nM	> 100 nM	–	–	–	–
C[C@@H]1CN(c2ccnn3cc(-c4cccc(CC#N)n4)cc23)C(=O)[C@]1(C#N)C1CC1 [Example 125, (3R,4S)-1-(6-(6-(cyanomethyl)pyridin-2-yl)pyrrolo[1,2-b]pyridazin-4-yl)-3-cyclopropyl-4-methyl-2-oxopyrrolidine-3-carbonitrile trifluoroacetate]	100 to 1000 nM	100 to 1000 nM	100 to 1000 nM	20 to 50 nM	–	–	–	–
